What was measured:
[1] = test system: Aβ42; experiment: In vivo efficacy B-1a: brain soluble Aβ42 in non-transgenic rodents, ELISA; set-up: species or system mouse; details: dose 30 mg/kg oral dosing, brain soluble fraction, untreated animals (Ctrl) set at 100; for response vs control in vivo at 30 mg/kg: Mus musculus, po, read-out: Aβ42 (% vs Ctrl)_Mean; for Aβ42 (% vs Ctrl)_Mean: 30 mg/kg
Source text: (§1) To determine whether acute administration of an Aβ42 lowering agent would reduce Aβ42 levels in vivo, non-transgenic rodents, e.g. mice or rats were used. Animals treated with the Aβ42 lowering agent were examined and compared to those untreated or treated with vehicle and brain levels of soluble Aβ42 and total Aβ were quantitated by standard techniques, for example, using ELISA. Treatment periods varied from hours (h) to days and were adjusted based on the results of the Aβ42 lowering once a time course of onset of effect could be established.
(§2) A typical protocol for measuring Aβ42 lowering in vivo is shown but it is only one of many variations that could be used to optimize the levels of detectable Aβ. For example, Aβ42 lowering compounds were formulated in 20% of Captisol® (a sulfobutyl ether of β-cyclodextrin) in water or 20% hydroxypropyl β cyclodextrin. The Aβ42 lowering agents were administered as a single oral dose or by any acceptable route of administration to overnight fasted animals. After 4 h, the animals were sacrificed and Aβ42 levels were analysed.
(§3) Blood was collected by decapitation and exsanguinations in EDTA-treated collection tubes. Blood was centrifuged at 1900 g for 10 minutes (min) at 4° C. and the plasma recovered and flash frozen for later analysis. The brain was removed from the cranium and hindbrain. The cerebellum was removed and the left and right hemisphere were separated. The left hemisphere was stored at −18° C. for quantitative analysis of test compound levels. The right hemisphere was rinsed with phosphate-buffered saline (PBS) buffer and immediately frozen on dry ice and stored at −80° C. until homogenization for biochemical assays.
(§4) Mouse brains from non-transgenic animals were resuspended in 8 volumes of 0.4% DEA (diethylamine)/50 mM NaCl containing protease inhibitors (Roche-11873580001 or 04693159001) per gram of tissue, e.g. for 0.158 g brain, add 1.264 mL of 0.4% DEA. All samples were homogenized in the FastPrep-24 system (MP Biomedicals) using lysing matrix D (MPBio #6913-100) at 6 m/s for 20 seconds. Homogenates were centrifuged at 20800×g for 5 min and supernatants collected. Supernatants were centrifuged at 221.300×g for 50 min. The resulting high speed supernatants were then transferred to fresh eppendorf tubes. Nine parts of supernatant were neutralized with 1 part 0.5 M Tris-HCl pH 6.8 and used to quantify Aβtotal and Aβ42.
To quantify the amount of Aβtotal and Aβ42 in the soluble fraction of the brain homogenates, Enzyme-Linked-Immunosorbent-Assays were used. Briefly, the standards (a dilution of synthetic Aβ1-40 and Aβ1-42, Bachem) were prepared in 1.5 mL Eppendorf tube in Ultraculture, with final concentrations ranging from 10000 to 0.3 pg/mL. The samples and standards were co-incubated with HRPO-labelled N-terminal antibody JRF/rAμ/2 for Aβ42 detection and with the biotinylated mid-domain antibody 4G8 for Aβtotal detection. 50 μl of conjugate/sample or conjugate/standards mixtures were then added to the antibody-coated plate (the capture antibodies selectively recognize the C-terminal end of Aβ42, antibody JRF/cAβ42/26, for Aβ42 detection and the N-terminus of AB, antibody JRF/rAβ/2, for Aβtotal detection). The plate was allowed to incubate overnight at 4° C. in order to allow formation of the antibody-amyloid complex. Following this incubation and subsequent wash steps the ELISA for Aβ42 quantification was finished by addition of Quanta Blu fluorogenic peroxidase substrate according to the manufacturer's instructions (Pierce Corp., Rockford, Ill.). A reading was performed after 10 to 15 min (excitation 320 nm/emission 420 nm).
In this model a Aβ42 lowering compared to untreated animals would be advantageous, in particular a Aβ42 lowering with at least 10%, more in particular a Aβ42 lowering with at least 20%.
The results are shown in Table 4 (dose 30 mg/kg oral dosing) (value for untreated animals as control (Ctrl) was set at 100): […]

[2] = test system: Aβ38; experiment: In vivo efficacy B-2a: brain soluble Aβ38 in non-transgenic rodents, ELISA; set-up: species or system mouse; details: dose 30 mg/kg oral dosing, brain soluble fraction, untreated animals (Ctrl) set at 100; for response vs control in vivo at 30 mg/kg: Mus musculus, po, read-out: Aβ38 (% vs Ctrl)_Mean; for Aβ38 (% vs Ctrl)_Mean: 30 mg/kg
Source text: Aβ38 increasing agents can be administered in any standard form using any standard method. For example, but not limited to, Aβ38 increasing agents can be in the form of liquid, tablets or capsules that are taken orally or by injection.
as §1, with “Aβ38 increasing agents” for “Aβ42 lowering agent”, “increase Aβ38” for “reduce Aβ42”, “Aβ38” for “Aβ42”, “Aβ38 increase” for “Aβ42 lowering”
as §2, with “measuring Aβ38 increase” for “measuring Aβ42 lowering”, “example, Aβ38 increasing agents” for “example, Aβ42 lowering compounds”, “The Aβ38 increasing” for “The Aβ42 lowering”, “and Aβ38” for “and Aβ42”
as §3
as §4, with “Aβ38.” for “Aβ42.”
To quantify the amount of Aβtotal and Aβ38 in the soluble fraction of the brain homogenates, Enzyme-Linked-Immunosorbent-Assays were used. Briefly, the standards (a dilution of synthetic Aβ1-40 and Aβ1-38, ANASPEC) were prepared in 1.5 mL Eppendorf tube in Ultraculture, with final concentrations ranging from 10000 to 0.3 pg/mL. The samples and standards were co-incubated with HRPO-labelled N-terminal antibody for Aβ38 detection and with the biotinylated mid-domain antibody 4G8 for Aβtotal detection. 50 μl of conjugate/sample or conjugate/standards mixtures were then added to the antibody-coated plate (the capture antibodies selectively recognize the C-terminal end of Aβ38, antibody J&JPRD/Aβ38/5, for Aβ38 detection and the N-terminus of Aβ, antibody JRF/rAβ/2, for Aβtotal detection). The plate was allowed to incubate overnight at 4° C. in order to allow formation of the antibody-amyloid complex. Following this incubation and subsequent wash steps the ELISA for Aβ38 quantification was finished by addition of Quanta Blu fluorogenic peroxidase substrate according to the manufacturer's instructions (Pierce Corp., Rockford, Ill.). A reading was performed after 10 to 15 min (excitation 320 nm/emission 420 nm). […]

Compound	response vs control in vivo at 30 mg/kg [1] [%]	response vs control in vivo at 30 mg/kg [2] [%]	Aβ42 (% vs Ctrl)_Mean [1] [% vs Ctrl]	Aβ38 (% vs Ctrl)_Mean [2] [% vs Ctrl]
Cc1cn(-c2ccc3[nH]c(-c4nc5n(n4)CCCC5c4ccc(F)cc4C)cc3c2)cn1 (single isomer, unassigned) [Compound 77, 8-(4-fluoro-2-methylphenyl)-5,6,7,8-tetrahydro-2-[5-(4-methyl-1H-imidazol-1-yl)-1H-indol-2-yl]-[1,2,4]triazolo[1,5-a]pyridine]	104	168	–	–
Cc1cc(F)ccc1C1OCCn2cc(-c3cc4nc(-c5cnn(C)c5)ccc4[nH]3)nc21 (single isomer, unassigned) [Compound 102, 8-(4-fluoro-2-methylphenyl)-5,6-dihydro-2-[5-(1-methyl-1H-pyrazol-4-yl)-1H-pyrrolo[3,2-b]pyridin-2-yl]-8H-imidazo[2,1-c][1,4]oxazine]	98	82	–	–
COc1c(C#N)ccc2[nH]c(-c3nc4n(n3)CCOC4c3c(F)cccc3Cl)cc12 (single isomer, unassigned) [Compound 117, 2-[8-(2-chloro-6-fluorophenyl)-5,6-dihydro-8H-[1,2,4]triazolo[5,1-c][1,4]oxazin-2-yl]-4-methoxy-1H-indole-5-carbonitrile]	63	106	–	–
Cc1cc(F)ccc1C1CCCn2nc(-c3[nH]c4ccc(C#N)cc4c3F)nc21 (single isomer, unassigned) [Compound 182, 3-fluoro-2-[8-(4-fluoro-2-methylphenyl)-5,6,7,8-tetrahydro[1,2,4]triazolo[1,5-a]pyridin-2-yl]-1H-indole-5-carbonitrile]	122	132	–	–
Cc1cc(F)ccc1C1CCCn2cc(-c3cc4cc(C#N)ccc4[nH]3)nc21 (stereo not shown) [Compound 4, 2-[8-(4-fluoro-2-methylphenyl)-5,6,7,8-tetrahydroimidazo[1,2-a]pyridin-2-yl]-1H-indole-5-carbonitrile]	–	–	63	141
Cc1cn(-c2ccc3[nH]c(-c4nc5n(n4)CCCC5c4ccccc4C)cc3n2)cn1.Cl (stereo not shown) [Compound 5, 5,6,7,8-tetrahydro-2-[5-(4-methyl-1H-imidazol-1-yl)-1H-pyrrolo[3,2-b]pyridin-2-yl]-8-(2-methylphenyl)-[1,2,4]triazolo[1,5-a]pyridine]	106	123	–	–
Cc1cc(-c2ccc3[nH]c(-c4nc5n(n4)CCCC5c4ccccc4C)cc3n2)ccn1 (stereo not shown) [Compound 6, 5,6,7,8-tetrahydro-8-(2-methylphenyl)-2-[5-(2-methyl-4-pyridinyl)-1H-pyrrolo[3,2-b]pyridin-2-yl]-[1,2,4]triazolo[1,5-a]pyridine]	79	78	–	–
COc1c(C#N)ccc2[nH]c(-c3nc4n(n3)CCCC4c3ccccc3C(F)(F)F)cc12 (stereo not shown) [Compound 7, 4-methoxy-2-[5,6,7,8-tetrahydro-8-[2-(trifluoromethyl)phenyl][1,2,4]triazolo[1,5-a]pyridin-2-yl]-1H-indole-5-carbonitrile]	82	120	–	–
Cc1cn(-c2ccc3[nH]c(-c4nc5n(n4)CCCC5c4ccccc4C(F)(F)F)cc3c2)cn1 (stereo not shown) [Compound 8, 5,6,7,8-tetrahydro-2-[5-(4-methyl-1H-imidazol-1-yl)-1H-indol-2-yl]-8-[2-(trifluoromethyl)phenyl]-[1,2,4]triazolo[1,5-a]pyridine]	41	181	–	–
Cc1cc(F)ccc1C1CCCn2nc(-c3cc4cc(C#N)ccc4[nH]3)nc21 (stereo not shown) [Compound 9, 2-[8-(4-fluoro-2-methylphenyl)-5,6,7,8-tetrahydro[1,2,4]triazolo[1,5-a]pyridin-2-yl]-1H-indole-5-carbonitrile]	–	–	66	87
Cc1cc(F)ccc1C1CCCn2nc(-c3cc4cc(C#N)ccc4[nH]3)nc21 (stereo not shown) [Compound 10, 2-[8-(4-fluoro-2-methylphenyl)-5,6,7,8-tetrahydro[1,2,4]triazolo[1,5-a]pyridin-2-yl]-1H-indole-5-carbonitrile]	72	–	–	115
Cc1ccccc1C1CCCn2nc(-c3cc4cc(C#N)ccc4[nH]3)nc21 (stereo not shown) [Compound 12, 2-[5,6,7,8-tetrahydro-8-(2-methylphenyl)[1,2,4]triazolo[1,5-a]pyridin-2-yl]-1H-indole-5-carbonitrile]	–	–	94	96
Cc1ccccc1C1CCCn2nc(-c3cc4cc(C#N)ccc4[nH]3)nc21 (stereo not shown) [Compound 13, 2-[5,6,7,8-tetrahydro-8-(2-methylphenyl)[1,2,4]triazolo[1,5-a]pyridin-2-yl]-1H-indole-5-carbonitrile]	79	116	–	–
N#Cc1ccc2[nH]c(-c3cn4c(n3)C(c3ccccc3Cl)CCC4)cc2c1 (stereo not shown) [Compound 16, 2-[8-(2-chlorophenyl)-5,6,7,8-tetrahydroimidazo[1,2-a]pyridin-2-yl]-1H-indole-5-carbonitrile]	74	120	–	–

— patent US9115143B2, “Substituted indole derivatives as gamma secretase modulators” (Janssen Pharmaceuticals, Inc., priority 2011, dated 2015)
